Test [1] has as its target T1, B1R receptor of the rat (bradykinin 1 receptor) (Rattus norvegicus, UniProt P97583).
T1 construct: host or cells: CHO K1 cells (rB1R cells)
T1 sequence (P97583 1-337): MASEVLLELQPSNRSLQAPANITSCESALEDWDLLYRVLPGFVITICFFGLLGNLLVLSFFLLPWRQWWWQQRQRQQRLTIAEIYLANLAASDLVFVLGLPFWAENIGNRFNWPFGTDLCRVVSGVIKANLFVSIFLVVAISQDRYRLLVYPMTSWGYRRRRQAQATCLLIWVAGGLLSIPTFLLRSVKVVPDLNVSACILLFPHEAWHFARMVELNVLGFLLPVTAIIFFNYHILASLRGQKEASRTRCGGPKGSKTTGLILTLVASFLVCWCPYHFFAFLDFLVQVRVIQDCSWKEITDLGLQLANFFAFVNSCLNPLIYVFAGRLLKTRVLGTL
As to the kind of experiment: FLIPR Ca2+ assay (Fluo-4) on CHO K1 cells stably transfected with the B1R gene of the rat; % activation and % inhibition at 10 μM. The settings on record: CHO-K1, test substance 10 μM; CHO K1 rB1R cells; Ca2+ inflow after 100 nM Des-Arg9-bradykinin; read-out: B1R antagonism, rat [10 μM] % inhibition. The test is classed as cell-based. The procedure: The agonistic or antagonistic action of substances can be quantified on the bradykinin receptor 1 (B1R) of the species human and rat with ectopically expressing cell lines (CHO K1 cells) and with the aid of a Ca^2+-sensitive dye (Fluo-4) using a fluorescent imaging plate reader (FLIPR). The indication in % activation is based on the Ca^2+ signal after addition of Lys-Des-Arg^9-bradykinin (0.5 nM) or Des-Arg^9-bradykinin (100 nM). Antagonists result in a suppression of the Ca^2+ influx following administration of the agonist. The % inhibition in comparison with the maximum achievable inhibition is indicated.
Functional Investigation on the Bradykinin 1 Receptor (B1R)
The agonistic or antagonistic action of substances can be determined on the bradykinin 1 receptor (B1R) of the human and rat species with the following assay. According to this assay, the Ca^2+ inflow through the channel is quantified with the aid of a Ca^2+-sensitive dyes (Fluo-4 type, Molecular Probes Europe BV, Leiden, The Netherlands) in a fluorescent imaging plate reader (FLIPR, Molecular Devices, Sunnyvale, USA).
Chinese Hamster Ovary cells (CHO K1 cells) which are stably transfected with the human B1R gene (hB1R cells, Euroscreen s.a., Gosselies, Belgium) or the B1R gene of the rat (rB1R cells, Axxam, Milan, Italy) are used. For functional investigations, these cells are plated-out on black 96-well plates with a clear base (BD Biosciences, Heidelberg, Germany) in a density of 20,000-25,000 cells/well. Overnight, the cells are incubated at 37° C. and 5% CO2 in culture medium (hB1R cells: Nutrient Mixture Ham's F12, Gibco Invitrogen GmbH, Karlsruhe, Germany; rB1R cells: D-MEM/F12, Gibco Invitrogen, Karlsruhe, Germany) with 10 vol. % FBS (foetal bovine serum, Gibco Invitrogen GmbH, Karlsruhe, Germany). On the following day, the cells are loaded with 2.13 μM Fluo-4 (Molecular Probes Europe BV, Leiden, The Netherlands) in HBSS buffer (Hank's buffered saline solution, Gibco Invitrogen GmbH, Karlsruhe, Germany) […] (Sigma-Aldrich, Taufkirchen, Germany) and 10 mM HEPES (Sigma-Aldrich, Taufkirchen, Germany) for 60 min at 37° C. The plates are subsequently washed 2× with HBSS buffer, and HBSS buffer which additionally contains 0.1% BSA (bovine serum albumin; Sigma-Aldrich, Taufkirchen, Germany), 5.6 mM glucose and 0.05% gelatine (Merck KGaA, Darmstadt, Germany) is added. After a further incubation of 20 minutes at room temperature, the plates are inserted into the FLIPR for Ca^2+ measurement. The Ca^2+-dependent fluorescence is measured here before and after addition of substances (λex=488 nm, λem=540 nm). The quantification is effected by measurement of the highest fluorescence intensity (FC, fluorescence counts) over time.
The FLIPR protocol comprises 2 additions of substance. Test substances (10 μM) are first pipetted on to the cells and the Ca^2+ inflow is compared with the control (hB1R: Lys-Des-Arg^9-bradykinin 0.5 nM; rB1R: Des-Arg^9-bradykinin 100 nM). The value in % activation based on the Ca^2+ signal after addition of Lys-Des-Arg^9-bradykinin (0.5 nM) or Des-Arg^9-bradykinin (100 nM) is obtained therefrom. After incubation for 10 minutes, 0.5 nM Lys-Des-Arg^9-bradykinin (hB1R) or 100 nM Des-Arg^9-bradykinin (rB1R) are applied and the inflow of Ca^2+ is likewise determined. Antagonists lead to a suppression of the Ca^2+ inflow. % inhibition compared with the maximum inhibition which can be achieved is calculated. The compounds show a good activity on the human and on the rat receptor. The following data were determined by way of example: […]

Test [2] has as its target T2, human B1R receptor (bradykinin 1 receptor) (Homo sapiens, UniProt P46663).
T2 construct: host or cells: CHO K1 cells (hB1R cells)
T2 sequence (P46663 1-353): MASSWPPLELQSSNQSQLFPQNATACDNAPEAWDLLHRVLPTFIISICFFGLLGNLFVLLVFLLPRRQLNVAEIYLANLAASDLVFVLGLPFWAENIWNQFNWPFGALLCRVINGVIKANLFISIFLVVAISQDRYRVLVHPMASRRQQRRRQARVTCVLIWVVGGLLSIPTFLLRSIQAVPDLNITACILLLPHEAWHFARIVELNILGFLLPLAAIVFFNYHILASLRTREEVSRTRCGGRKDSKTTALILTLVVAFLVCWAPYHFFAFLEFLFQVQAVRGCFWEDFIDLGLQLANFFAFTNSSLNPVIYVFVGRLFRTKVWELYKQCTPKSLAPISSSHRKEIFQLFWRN
Description: FLIPR Ca2+ assay (Fluo-4) on CHO K1 cells stably transfected with the human B1R gene; % activation and % inhibition at 10 μM. The test is classed as cell-based. The settings on record: CHO-K1, test substance 10 μM; CHO K1 hB1R cells; Ca2+ inflow after 0.5 nM Lys-Des-Arg9-bradykinin; read-out: B1R antagonism, human [10 μM] % inhibition. The method in brief: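 Fluo-4 Ca2+ flux on FLIPR in stable hB1R or rB1R CHO K1 lines, two additions. Agonism: 10 µM compound versus 0.5 nM Lys-Des-Arg9-BK (human) or 100 nM Des-Arg9-BK (rat); antagonism: same agonists applied 10 min later, suppression expressed against maximum achievable inhibition.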

Structures can show the parent of a compound that is named as a salt.

One may read the inhibition as the drop in the measured response relative to a control, in per cent. For the compound `Cc1ccc(S(=O)(=O)N2CCCCC2COCC(=O)N2CCC(O)(c3cccnc3)CC2)cc1Cl` (stereo not shown) [Example 161, 2-((1-(3-chloro-4-methylphenylsulfonyl)piperidin-2-yl)methoxy)-1-(4-hydroxy-4-(pyridin-3-yl)piperidin-1-yl)ethanone], the inhibition at 10 µM in test [1] was 80.8%; in test [2], 78.5%.
As to `COc1cc(C)c(S(=O)(=O)N(CCOCC(=O)N2CCC(O)(c3cccc(C(F)(F)F)c3)CC2)CC2CC2)c(C)c1C` [Example 208, N-(cyclopropylmethyl)-N-(2-(2-(4-hydroxy-4-(3-(trifluoromethyl)phenyl)-piperidin-1-yl)-2-oxoethoxy)ethyl)-4-methoxy-2,3,6-trimethylphenylsulfonamide], the inhibition at 10 µM in test [1] was 100%; in test [2], 106%.
For `O=C(COCC1CCCCN1S(=O)(=O)c1cccc(C(F)(F)F)c1)N1CCC(O)(Cc2ccccc2)CC1` (stereo not shown) [Example 65, 1-(4-benzyl-4-hydroxy-piperidin-1-yl)-2-[1-(3-trifluoromethyl-phenylsulfonyl)-piperidin-2-ylmethoxy]-ethanone] the same measures were 25.8% and 21%.
`CN(CCOCC(=O)N1CCC(O)(c2ccccn2)CC1)S(=O)(=O)c1cc(F)cc(F)c1` [Example 70, 3,5-difluoro-N-{2-[2-(4′-hydroxy-3′,4′,5′,6′-tetrahydro-2′H-[2,4′]bipyridinyl-1′-yl)-2-oxo-ethoxy]-ethyl}-N-methyl-phenylsulfonamide]: the inhibition at 10 µM was -12.2% in test [1] and 7.12% in test [2].
Take `O=C(COCC1Cc2ccccc2N1S(=O)(=O)c1ccc(Cl)c(Cl)c1)N1CCC(O)(Cc2ccccc2)CC1` (stereo not shown) [Example 99, 1-(4-benzyl-4-hydroxy-piperidin-1-yl)-2-[1-(3,4-dichloro-phenylsulfonyl)-2,3-dihydro-1H-indol-2-ylmethoxy]-ethanone]: the inhibition at 10 µM in test [1] is -12.4%; in test [2] it was -22.9%.
Consider `O=C(COCC1CCCCN1S(=O)(=O)c1c(Cl)cc(C(F)(F)F)cc1Cl)N1CCC(O)(Cc2ccccc2)CC1` (stereo not shown) [Example 163, 1-(4-benzyl-4-hydroxypiperidin-1-yl)-2-((1-(2,6-dichloro-4-(trifluoromethyl)phenylsulfonyl)piperidin-2-yl)methoxy)ethanone], for which the inhibition at 10 µM in test [1] was determined as 101%; in test [2], 46.1%.
With `O=C(COCC1Cc2ccccc2N1S(=O)(=O)c1ccc(Cl)cc1Cl)N1CCC(O)(c2cccnc2)CC1` (stereo not shown) [Example 135, 2-((1-(2,4-dichlorophenylsulfonyl)indolin-2-yl)methoxy)-1-(4-hydroxy-4-(pyridin-3-yl)piperidin-1-yl)ethanone], the figures for the inhibition at 10 µM in test [1] and in test [2] were 100% and 99.8%, respectively.
As for `Cc1ccc2ccccc2c1S(=O)(=O)N(C)CCOCC(=O)N1CCC(O)(c2cccnc2)CC1` [Example 148, N-(2-(2-(4-hydroxy-4-(pyridin-3-yl)piperidin-1-yl)-2-oxoethoxy)ethyl)-N,2-dimethylnaphthalene-1-sulfonamide], the inhibition at 10 µM in test [1] amounted to 99%; in test [2] it was 100%.
`O=C(COCC1Cc2ccccc2CN1S(=O)(=O)c1ccccc1)N1CCC(O)(Cc2ccccc2)CC1` (stereo not shown) [Example 77, 2-(2-phenylsulfonyl-1,2,3,4-tetrahydro-isoquinolin-3-ylmethoxy)-1-(4-benzyl-4-hydroxy-piperidin-1-yl)-ethanone]: the inhibition at 10 µM was -0.12% in test [1] and 13.3% in test [2].
For `O=C(COC1CCCCC1N(Cc1ccccc1)S(=O)(=O)c1ccc(Cl)c(Cl)c1)N1CCC(O)(Cc2ccccc2)CC1` (stereo not shown) [Example 84, N-benzyl-N-{2-[2-(4-benzyl-4-hydroxy-piperidin-1-yl)-2-oxo-ethoxy]-cyclohexyl}-3,4-dichloro-phenylsulfonamide] the same measures were -9.47% and -0.61%.
As to `O=C(COCC1CCCN1S(=O)(=O)c1c(Cl)cc(C(F)(F)F)cc1Cl)N1CCC(O)(c2ccccc2)CC1` (stereo not shown) [Example 168, 2-((1-(2,6-dichloro-4-(trifluoromethyl)phenylsulfonyl)pyrrolidin-2-yl)methoxy)-1-(4-hydroxy-4-phenylpiperidin-1-yl)ethanone], the inhibition at 10 µM in test [1] is 104%; in test [2], 33.1%.
Turning to `Cc1cc(S(=O)(=O)N(C)CCOCC(=O)N2CCC(O)(c3cccc(C(F)(F)F)c3)CC2)c(C)cc1Cl` [Example 154, 4-chloro-N-(2-(2-(4-hydroxy-4-(3-(trifluoromethyl)phenyl)piperidin-1-yl)-2-oxoethoxy)ethyl)-N,2,5-trimethylphenylsulfonamide], the inhibition at 10 µM in test [1] came to 96.4%; in test [2], 98.8%.
As for `O=C(COCC1Cc2ccccc2CN1S(=O)(=O)c1ccc(Cl)cc1Cl)N1CCC(O)(c2cccnc2)CC1` (stereo not shown) [Example 131, 2-((2-(2,4-dichlorophenylsulfonyl)-1,2,3,4-tetrahydroisoquinolin-3-yl)methoxy)-1-(4-hydroxy-4-(pyridin-3-yl)piperidin-1-yl)ethanone hydrochloride], the inhibition at 10 µM in test [1] amounted to 100%; in test [2], 102%.
Regarding `CN(c1ccccc1OCC(=O)N1CCC(O)(Cc2ccccc2)CC1)S(=O)(=O)c1ccc(Cl)c(Cl)c1` [Example 33, N-{2-[2-(4-benzyl-4-hydroxy-piperidin-1-yl)-2-oxo-ethoxy]-phenyl}-3,4-dichloro-N-methyl-phenylsulfonamide], the inhibition at 10 µM in test [1] was 19.4%; in test [2], 6.18%.
